This note sets out measurements from EP4817613A1, “COMPOSITION FOR ERADICATING HELICOBACTER PYLORI COMPRISING ZASTAPRAZAN OR PHARMACEUTICALLY ACCEPTABLE SALT THEREOF” (Jeil Pharmaceutical Co., Ltd., priority 2023, dated 2025).

In assay [1] the test system is patients with erosive gastroesophageal reflux disease. In words: Phase 3 clinical trial: healing rate of mucosal breaks in H. pylori-positive subjects. The assay is classed as in vivo, human. The method, then: H. pylori testing was performed by 13C-UBT, gastroscopy (Campylobacter-like organism test, CLO), or tissue biopsy to confirm H. pylori positivity/negativity. The testing was performed at the screening visit (Visit 1) or the randomization visit (Visit 2), and results from the same institution within 29 days prior to the randomization visit (Visit 2) could be substituted. Those who voluntarily agreed to participate in this clinical trial underwent a screening test through a screening visit, and only eligible subjects were allowed to participate in the clinical trial based on the inclusion/exclusion criteria. Eligible subjects were randomly assigned to the test group or control group and received the clinical trial drug according to the assigned group at the baseline visit (V2). […] [Table 10] The cumulative healing rate of mucosal breaks according to the presence or absence of H. pylori infection refers to the proportion of subjects whose mucosal breaks were healed by 4 weeks after the administration of the clinical trial drug on endoscopic examination. The frequency and percentage of healing rates of mucosal breaks at week 4 after the administration of the clinical trial drug were presented by administration group according to the presence or absence of H. pylori infection. The differences between the administration groups (test group-control group) were analyzed using the Cochran-Mantel-Haenszel method corrected with the baseline LA classification method as a stratification factor, and the 95% confidence intervals for the differences were presented.

Assay [2] has the same test system. The assay is described as follows: Phase 2 clinical trial, randomized, double-blind, active-controlled: healing of mucosal breaks and symptoms. Particulars: for overall healing rate, number of subjects whose mucosal breaks were completely healed / overall healing rate, proportion of subjects whose mucosal breaks were completely healed: H. pylori-positive and -negative groups together. It is filed as in vivo, human. The method, then:
H. pylori testing was performed by 13C-urea breath test (13C-UBT), gastroscopy (Campylobacter-like organism test, CLO), or tissue biopsy to confirm H. pylori positivity/negativity. The testing was performed at the screening visit (Visit 1) or the randomization visit (Visit 2), and results from the same institution within 29 days prior to the randomization visit (Visit 2) could be substituted. This clinical trial was a randomized, double-blind, active-controlled, multicenter, phase 2 clinical trial targeting patients with erosive gastroesophageal reflux disease. After the subjects gave written consent to participate in the clinical trial, a screening test was conducted. When the subjects were taking drugs that could affect the gastric mucosa at the time of screening, an upper gastrointestinal endoscopy was performed after a 2-week drug-free period (a 4-week drug-free period for potassium-competitive acid blockers (P-CABs) or proton pump inhibitors (PPIs)). […] At this time, the subjects were stratified by grade (A, B, C, D) according to the LA classification system classified by upper gastrointestinal endoscopy. Randomly assigned subjects took the clinical trial drug once a day according to the assigned administration group for four weeks. After four weeks of administration of the clinical trial drug, the subjects visited the clinical trial institution to undergo an upper gastrointestinal endoscopy to assess whether they were healed. Healed subjects underwent a Safety Follow-Up (F/U) two weeks later, and unhealed subjects were administered the clinical trial drug for additional four weeks (a total of 8 weeks of administration) and visited the clinical trial institution to undergo an upper gastrointestinal endoscopy. […] Days of achieving complete remission (CR, disappearance of heartburn and acid reflux for seven days) after the administration of the clinical trial drug • D. Proportion of symptom-free days (heartburn, acid reflux, heartburn/acid reflux) for 4 and 8 weeks after the administration of the clinical trial drug (daytime, nighttime, daytime/nighttime) • ③ Changes in frequency and severity of major symptoms at week 4 and week 8 of the clinical trial drug administration compared to the gastroesophageal reflux disease questionnaire (RDQ) baseline • ④ Changes in total score at week 4 and week 8 of the clinical trial drug administration compared to the GERD Health-Related Quality of Life (GERD-HRQL) baseline The proportion of subjects whose erosions recovered to normal mucosa from the first administration of the clinical trial drug up to week 8 and the two-sided 95% confidence intervals were presented by administration group. […] Days of achieving CR (disappearance of heartburn and acid reflux for seven days) after the administration of the clinical trial drug: When the symptom score is 0 for seven consecutive days after the first administration of the clinical trial drug, it was defined as CR (disappearance of heartburn and acid reflux for seven days), and the event was based on the first CR. When there was no CR, the case was considered as censoring.

The test system of assay [3] is Helicobacter pylori SS1 (mouse colonizing strain). In words: Antibiotic susceptibility testing by microdilution (MIC and MBC), CLSI guideline. The assay is classed as cell-based. The following applies: lowest concentration with no growth after spotting on antibiotic-free agar, Table 4 prints no unit (method concentrations in µg/mL). The method, then: Helicobacter pylori SS1 (mouse colonizing strain): A strain known as Sydney strain. The strain is CagA-positive and VacA-positive and has been confirmed to infect and colonize in C57BL/6 mice. The strain is used in animal testing. The medium was prepared using Müller-Hinton broth (MH, Difco Inc., Sparks, MD, USA) [w/7% differentiation medium (Sigma CO., LTD., St. Louis, USA), 0.4% isovitalex (BBL Inc., Sparks, MD, USA)]. An antibiotic susceptibility testing was performed using the microdilution method according to the CLSI guideline. Two-fold serial dilution was performed in 12 steps in a 48-well plate with the highest concentration of 128 µg/mL for amocixillin and clarithromycin and 256 µg/mL for omeprazole. The bacteria were inoculated into wells containing only medium without antibiotics to prepare the positive control group, and the wells containing only medium without antibiotics or inoculated bacteria were used as the negative control group. The concentration range of the test substances, zastaprazan (JP-1366) and fexuprazan, was determined through preliminary experiments. […] The lowest concentration at which no bacterial growth was observed was determined as the MIC. […] The lowest concentration at which no bacteria growth occurred was determined as the MBC. […] All tests were performed in duplicate, and the results were determined by conducting the experiments in triplicate.

On to `COc1ccc2nc([S@@+]([O-])Cc3ncc(C)c(OC)c3C)[nH]c2c1` [Esomeprazole, Esomeprazole magnesium trihydrate, reference compound], for which the “Number of healed subjects, (%)” value in assay [1] (full analysis set (FAS), week 4, 40 mg once a day, 25 subjects) worked out at 80.00%. In addition, the “Healing rate, (%)” value in assay [2] (H. pylori-negative group, week 8, 40 mg once a day, N=41) was 97.56%. The “overall healing rate, number of subjects whose mucosal breaks were completely healed” value in assay [2] (week 4, 40 mg once a day, of 49 people) is 44 people.

On to `Cc1cccc(C)c1CNc1cc(C(=O)N2CCC2)cn2c(C)c(C)nc12.O=C(O)CC(O)(CC(=O)O)C(=O)O` [JP-1366, azetidin-1-yl{8-[(2,6-dimethylbenzyl)amino]-2,3-dimethylimidazo[1,2-a]pyridin-6-yl}methanone citrate salt], for which the “Number of healed subjects, (%)” value in assay [1] (full analysis set (FAS), week 4, 20 mg once a day, 28 subjects) is given as 96.43%; in assay [1] (per protocol set (PPS), week 4, 20 mg once a day, 26 subjects), 100.00%. Besides, the MBC in assay [3] is 16~323. Also, the “Healing rate, (%)” value in assay [2] (H. pylori-negative group, week 4, 10 mg once a day, N=41) was 95.12%; in assay [2] (H. pylori-negative group, week 4, 20 mg once a day, N=42) it was 90.48%; in assay [2] (H. pylori-negative group, week 8, 10 mg once a day, N=41), 97.56%; in assay [2] (H. pylori-negative group, week 8, 20 mg once a day, N=42), 97.62%; in assay [2] (H. pylori-positive group, week 4, 10 mg once a day, N=7), 85.71%; in assay [2] (H. pylori-positive group, week 4, 20 mg once a day, N=5, citrate salt), 100%. Further, the “Healing rate, (%)” value worked out at 100.00% in assay [2] (H. pylori-positive group, week 8, 10 mg once a day, N=7) and 100% in assay [2] (H. pylori-positive group, week 8, 20 mg once a day, N=5, citrate salt). For the same compound, the “overall healing rate, proportion of subjects whose mucosal breaks were completely healed” value in assay [2] (week 4, 10 mg once a day, 48 people) is 93.75%; in assay [2] (week 4, 20 mg once a day, 47 people) it was 91.49%. The “overall healing rate, number of subjects whose mucosal breaks were completely healed” value was 45 people in assay [2] (week 4, 10 mg once a day, of 48 people) and 43 people in assay [2] (week 4, 20 mg once a day, of 47 people).
